Here are results for ten compounds from US9006455B2 (Bristol-Myers Squibb Company, priority 2009, dated 2015).

Each structure is given as a SMILES string. Where two headings read alike, the source gives them in different places.

In this assay the test system is HCV 1b genotype. Nature of the assay: HCV Replicon assay (HCV 1b genotype). The note with it: Hepatitis C virus, HCV 1b genotype replicon. In kind it is cell-based. The method, boiled down:
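Cell-based HCV genotype 1b replicon assay in HCV-neo replicon cells, including replicons carrying NS5A resistance substitutions; luciferase reporter read-outs also used.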
For orientation: Replicon systems follow genome replication, usually without infectious particles.

The mark [1] stands for this setting: read-out: Range (EC50 values against HCV 1b).

As usually defined, the EC50 is the concentration giving half of the maximal effect.

`CC(C)(C)OC(=O)N1[C@@H]2C[C@@H]2C[C@H]1c1nc2ccc(-c3ccc4nc(-c5ccc6nc([C@@H]7C[C@H]8C[C@H]8N7C(=O)OC(C)(C)C)[nH]c6c5)ccc4c3)cc2[nH]1` [Intermediate 70, tert-Butyl(1R,3S,5R)-3-(5-(2-(2-((1R,3S,5R)-2-(tert-butoxycarbonyl)-2-azabicyclo[3.1.0]hex-3-yl)-1H-benzimidazol-6-yl)-6-quinolinyl)-1H-benzimidazol-2-yl)-2-azabicyclo[3.1.0]hexane-2-carboxylate]: the EC50 under setting [1] lay in the range of 1.01 to 1000 nM.
Regarding `COC(=O)N[C@H](C(=O)N1CCC[C@H]1c1nc2nc(-c3ccc4cc(-c5cnc6[nH]c([C@@H]7CCCN7C(=O)[C@@H](NC(=O)OC)C(C)C)nc6n5)ccc4c3)cnc2[nH]1)C(C)C` [Example 24, Methyl((1S)-1-(((2S)-2-(5-(6-(2-((2S)-1-((2S)-2-((methoxycarbonyl)amino)-3-methylbutanoyl)-2-pyrrolidinyl)-1H-imidazo[4,5-b]pyrazin-5-yl)-2-naphthyl)-1H-imidazo[4,5-b]pyrazin-2-yl)-1-pyrrolidinyl)carbonyl)-2-methylpropyl)carbamate], the half-maximal effective concentration (EC50) under setting [1] fell in the range of 0.0101 to 1 nM.
In the case of `COC(=O)NC(C(=O)N1[C@@H]2C[C@@H]2C[C@H]1c1ncc(C#Cc2ccc3cc(-c4cnc([C@@H]5C[C@H]6C[C@H]6N5C(=O)C(NC(=O)OC)C5CCOCC5)[nH]4)ccc3c2)[nH]1)C1CCOCC1` (stereo partly drawn) [Example 75, methyl(2-((1R,3S,5R)-3-(4-(6-((2-((1R,3S,5R)-2-(((methoxycarbonyl)amino)(tetrahydro-2H-pyran-4-yl)acetyl)-2-azabicyclo[3.1.0]hex-3-yl)-1H-imidazol-4-yl)ethynyl)-2-naphthyl)-1H-imidazol-2-yl)-2-azabicyclo[3.1.0]hex-2-yl)-2-oxo-1-(tetrahydro-2H-pyran-4-yl)ethyl)carbamate], the concentration giving a half-maximal response (EC50) (read-out: EC50) turned out to be 0.123 nM and the EC50 under setting [1] lay within 1.01 to 1000 nM.
In the case of `COC(=O)N[C@H](C(=O)N1CCC[C@H]1c1nc2ccc(-c3ccc4cc(-c5ccc6nc([C@@H]7CCCN7C(=O)[C@@H](NC(=O)OC)C(C)C)[nH]c6c5)ccc4c3)cc2[nH]1)C(C)C` [Example 2, Methyl((1S)-1-(((2S)-2-(5-(6-(2-((2S)-1-((2S)-2-((methoxycarbonyl)amino)-3-methylbutanoyl)-2-pyrrolidinyl)-1H-benzimidazol-5-yl)-2-naphthyl)-1H-benzimidazol-2-yl)-1-pyrrolidinyl)carbonyl)-2-methylpropyl)carbamate], for the setting “read-out: EC50”, the EC50 came to 0.00218 nM.
Consider `COC(=O)N[C@H](C(=O)N[C@@H](C)c1ncc(-c2ccc(-c3ccc4cc(-c5cnc([C@H](C)NC(=O)[C@@H](NC(=O)OC)C6CCOCC6)[nH]5)ccc4c3)cc2)[nH]1)C1CCOCC1` [Example 125, Methyl((1S)-2-(((1S)-1-(4-(4-(6-(2-((1S)-1-(((2S)-2-((methoxycarbonyl)amino)-2-(tetrahydro-2H-pyran-4-yl)acetyl)amino)ethyl)-1H-imidazol-4-yl)-2-naphthyl)phenyl)-1H-imidazol-2-yl)ethyl)amino)-2-oxo-1-(tetrahydro-2H-pyran-4-yl)ethyl)carbamate], for which the EC50 (read-out: EC50) stood at 0.136 nM and the half-maximal effective concentration (EC50) under setting [1] is 0.0101 to 1 nM.
Turning to `COC(=O)N[C@H](C(=O)N1CCC[C@H]1c1ncc(-c2ccc(-c3ccc4cc(-c5ccc6nc([C@@H]7CCCN7C(=O)[C@@H](NC(=O)OC)C(C)C)[nH]c6c5)ccc4c3)cc2)[nH]1)C(C)C` [Example 3, Methyl((1S)-1-(((2S)-2-(4-(4-(6-(2-(1-((2S)-2-((methoxycarbonyl)amino)-3-methylbutanoyl)-2-pyrrolidinyl)-1H-benzimidazol-5-yl)-2-naphthyl)phenyl)-1H-imidazol-2-yl)-1-pyrrolidinyl)carbonyl)-2-methylpropyl)carbamate], under setting [1], the EC50 was in the range of 0.0101 to 1 nM.
For the compound `COC(=O)N[C@H](C(=O)N1[C@@H]2C[C@@H]2C[C@H]1c1ncc(-c2cnc3cc(-c4ccc5nc([C@@H]6C[C@H]7C[C@H]7N6C(=O)[C@@H](NC(=O)OC)C6CCOCC6)[nH]c5c4)ccc3n2)[nH]1)C1CCOCC1` [Example 58, Methyl((1S)-2-((1R,3S,5R)-3-(4-(6-(2-((1R,3S,5R)-2-((2S)-2-((methoxycarbonyl)amino)-2-(tetrahydro-2H-pyran-4-yl)acetyl)-2-azabicyclo[3.1.0]hex-3-yl)-1H-benzimidazol-5-yl)-2-quinoxalinyl)-1H-imidazol-2-yl)-2-azabicyclo[3.1.0]hex-2-yl)-2-oxo-1-(tetrahydro-2H-pyran-4-yl)ethyl)carbamate], the EC50 is 0.849 nM (read-out: EC50) and 0.0101 to 1 nM under setting [1].
Regarding `COC(=O)N[C@H](C(=O)N1CCC[C@H]1c1nc2ccc(-c3ccc4cc(-c5ccc6nc([C@@H]7CCCN7C(=O)[C@@H](NC(=O)OC)C7CCOCC7)[nH]c6c5)ccc4c3)cc2[nH]1)C1CCOCC1` [Example 26, Dimethyl(2,6-naphthalenediylbis(1H-benzimidazole-5,2-diyl(2S)-2,1-pyrrolidinediyl((1S)-2-oxo-1-(tetrahydro-2H-pyran-4-yl)-2,1-ethanediyl)))biscarbamate], the half-maximal effective concentration (EC50) under setting [1] was 0.0101 to 1 nM.
`COC(=O)N[C@H](C(=O)N1[C@@H](C)CC[C@H]1c1ncc(-c2ccc(-c3ccc4cc(-c5cnc([C@@H]6CC[C@H](C)N6C(=O)[C@@H](NC(=O)OC)C6CCC(F)(F)CC6)[nH]5)ccc4c3)cc2)[nH]1)C1CCC(F)(F)CC1` [Example 71, Methyl((1S)-1-(4,4-difluorocyclohexyl)-2-((2S,5S)-2-(4-(4-(6-(2-((2S,5S)-1-((2S)-2-(4,4-difluorocyclohexyl)-2-((methoxycarbonyl)amino)acetyl)-5-methyl-2-pyrrolidinyl)-1H-imidazol-4-yl)-2-naphthyl)phenyl)-1H-imidazol-2-yl)-5-methyl-1-pyrrolidinyl)-2-oxoethyl)carbamate]: the EC50 (read-out: EC50) was determined as 0.00211 nM.
Regarding `COC(=O)N[C@@H](C)C(=O)N1CCC[C@H]1c1nc2cc(-c3ccc4ccc(-c5ccc6nc([C@@H]7CCCN7C(=O)[C@H](C)NC(=O)OC)[nH]c6c5)cc4c3)ccc2[nH]1` [Example 13, Methyl((1S)-2-((2S)-2-(5-(7-(2-((2S)-1-(N-(methoxycarbonyl)-L-alanyl)-2-pyrrolidinyl)-1H-benzimidazol-5-yl)-2-naphthyl)-1H-benzimidazol-2-yl)-1-pyrrolidinyl)-1-methyl-2-oxoethyl)carbamate], the EC50 under setting [1] was in the range of 1.01 to 1000 nM.
